Measurements published in patent US5612204A, “Biological degradative treatment of chlorine substituted ethylene” (priority 1994, dated 1997).
Read-outs that look alike come from different tables or passages of the source.

What was measured:
[1] = system: Nocardia corallina B-276 (FERM P-4094; FERM BP-5124; ATCC 31338); experiment: Reaction rate of degradation of chlorine-substituted substrates (Example 4, Table 1); format: cell-based
Method: Experiments were also carried on tetrachloroethylene (perchloroethylene) (PCE) and 1,2-dichloroethane (1,2-DCA).
The initial concentration of each substrate in the liquid phase was selected so as not to exceed 20 mg/l, i.e., the range in which no inhibition on the enzyme reaction is expected. Specifically, the substrate was added in an amount of […] which corresponded to 11.2 mg/l of trichloroethylene in terms of initial concentration in the liquid phase. […] The cell concentration during the reaction was set at 4.0 g/l or 8.0 g/l, and the concentration of the substrate remaining in the gas phase was measured with time in the same manner as in Example 3 and converted to the concentration in the liquid phase, from which the reaction rate was calculated.

[2] = system: E. coli JM109 (pDBB-1) (FERM BP-4250), transformant having an alkene monooxygenase gene of Nocardia corallina B-276 origin; experiment: Degradation of trichloroethylene by transformant E. coli JM109 (pDBB-1) cell suspension (Example 2); format: cell-based, Escherichia coli; conditions: 1 mM trichloroethylene, glucose added, 30° C., 12 hours
Method: LB medium (1.5 ml) (a liquid medium containing 10 g of Bacto-trypton, 5 g of Bacto-yeast extract, 10 g of sodium chloride, and deionized water to make 1 l, adjusted to pH 7.2 with a 1N aqueous […] solution, steam sterilized by autoclaving at 120° C. for 15 minutes) containing 50 μg/ml of ampicillin was inoculated with one loopful of E. coli JM109 (pDBB-1) (FERM BP-4250) using a platinum loop, which is a transformant having an alkene monooxygenase gene of Nocardia corallina B-276 origin, and incubated at 37° C. overnight (about 14 hours) for previous proliferation of the microorganism. Then, 100 ml of LB medium containing 50 μg/ml of ampicillin was inoculated with the resulting culture and incubated at 37° C. for 2 hours. To the culture was added isopropyl-β-D-thiogalactopyranoside (IPTG) at a final concentration of 1 mM, followed by further shake culture at 37° C. for 5 hours. A 10 ml aliquot of the resulting culture was centrifuged to collect the microbial cells, which were suspended in 2 ml of a minimal medium (K2 HPO4 1.74 g, MgSO4.7H2 O 1.5 g, FeSO4.H2 O 0.05 g, deionized water 1 l; adjusted to pH 8.0) to prepare a cell suspension. […]

[3] = system: Nocardia corallina B-276 (FERM P-4094; FERM BP-5124; ATCC 31338); experiment: Influence of trichloroethylene concentration on reaction rate of biological oxidation (Example 3); format: cell-based; conditions: 35° C.
Text: In the biological oxidation of trichloroethylene with Nocardia corallina B-276 (FERM […]; FERM BP-5124; ATCC 31338), the influence of the trichloroethylene concentration on the reaction rate was examined as follows.
Nocardia corallina B-276 (FERM P-4094; FERM BP-5124; ATCC 31338) was previously proliferated in the same manner as described in Example 1. The microbial cells collected were suspended in a medium (K2 HPO4 1.74 g, MgSO4 .7H2 O 1.5 g, FeSO4.H2 O 0.05 g, deionized water 1 l; adjusted to pH 8.0) to prepare a cell suspension.
In a 17 ml-volume flask was put 2 ml of the cell suspension, 100 μl of a 10% glucose solution added as an energy source, a varied amount of trichloroethylene added thereto, and the flask sealed and incubated at 35° C. for 5 hours while shaking to allow the cells to act on the trichloroethylene. The cell concentration was 2.44 g/l. A 1 ml aliquot of the gas was taken out every 1 hour from the gas phase of the sealed flask and analyzed by gas chromatography (column: Porapak Q) to measure the gaseous trichloroethylene concentration. The trichloroethylene concentration remaining in the liquid phase was calculated from the gaseous phase trichloroethylene concentration. This calculation was made on the assumption that the partitioning of trichloroethylene between the gas and liquid phases in the vial are obeyed by the partition law.
FIG. 3 is a graph of rate of reduction of liquid phase trichloroethylene concentration plotted against initial trichloroethylene concentration.

[4] = system: Nocardia corallina B-276 (FERM P-4094; FERM BP-5124; ATCC 31338); experiment: Degradation of trichloroethylene by Nocardia corallina B-276 cell suspension (Example 1); format: cell-based; conditions: 1 mM trichloroethylene, glucose added, 30° C., 12 hours
Method: In a 500 ml Sakaguchi's flask was put 100 ml of NBG medium (a liquid medium containing 10 g of Lab-Lemco powder (produced by Oxoid Co., Ltd.), 10 g of bacteriological peptone, 10 g of glucose, 5 g of sodium chloride, and water to make 1 l, adjusted to pH 7.5 with a 1N aqueous sodium hydroxide solution, steam sterilized by autoclaving at 120° C. for 15 minutes) and inoculated with three loopfuls of Nocardia corallina B-276 (FERM P-4094; FERM BP-5124; ATCC 31338) using a platinum loop, followed by shake culture at 30° C. for 96 hours for previous proliferation.
The resulting culture was centrifuged to collect the microbial cells, which were suspended in 50 ml of a minimal medium (K2 HPO4 1.74 g, MgSO4. 7H2 O 1.5 g, FeSO4. H2 O 0.05 g, deionized water 1 l; adjusted to pH 8.0) to prepare a cell suspension. […]
For comparison, 50 ml of a cell-free medium (K2 HPO4 1.74 g, MgSO4.7H2 O 1.5 g, FeSO4. H2 O 0.05 g, deionized water 1 l; adjusted to pH 8.0) was put to a flask of the same volume as used above, and 2.5 ml of a 10% glucose solution and trichloroethylene (final concentration: 1 mM) were added thereto. […] The signal intensity (I2) was 95% or more of the initial signal intensity (I0) measured on the medium immediately after addition of trichloroethylene.

[5] = Cell Concentration 4.0 g/l, initial substrate concentration not exceeding 20 mg/l

For Cl/C=C\Cl [cis-1,2-Dichloroethylene, cis-1,2-dichloroethylene], which “degradability by Nocardia corallina B-276” value (shortened to “degradability”) [1] is on record?
Its value is “can be degraded”.

What about the “Reaction Rate” value [1, 5] of the same compound?
Its value is 72.2 mg/L/h.

With ClC=C(Cl)Cl [Trichloroethylene, trichloroethylene] as the compound, how does the trichloroethylene degraded [2] read?
The trichloroethylene degraded was “about 17%”.

What about the “trichloroethylene concentration remaining in the medium (signal intensity I4 relative to I3)” value ([2]; sealed flask, gas chromatography) of the same compound?
Its value is “about 83%”.

And the “Michaelis constant Km of the trichloroethylene substrate” value ([3]; cell concentration 2.44 g/l, calculated based on the results of FIG. 3)?
Its value is 90.4 mg/L.

And the Km ([3]; cell concentration 2.44 g/l, calculated based on the results of FIG. 3, read-out: Michaelis constant Km of the trichloroethylene substrate)?
Its Km is 678 µM.

What about the “inhibition of the reaction by substrate” value ([3]; at least up to 90 mg/l of the initial trichloroethylene concentration in the liquid phase) of the same compound?
Its value is “no obvious inhibition”.

What about the trichloroethylene degraded [4] of the same compound?
The trichloroethylene degraded was “about 98%”.

What about the “trichloroethylene concentration remaining in the medium (signal intensity I1 relative to I2)” value ([4]; sealed flask, gas chromatography, relative to cell-free medium) of the same compound?
Its value is “about 2%”.

What about the “Reaction Rate” value [1, 5] of the same compound?
The value was 5.5 mg/L/h.

And the “Reaction Rate” value ([1]; cell concentration 4.0 g/l)?
Its value is 5.5 mg/l hr.

ClCCCl [1,2-Dichloroethane, 1,2-dichloroethane] was tested. Which “Reaction Rate” value [1, 5] did it give?
Its value is 0 mg/L/h.

And the “degradability” value ([1]; result in words)?
The value was “cannot be degraded”.

For Cl/C=C/Cl [trans-1,2-dichloroethylene], which “degradability” value [1] is on record?
Its value is “can be degraded”.

And the “Reaction Rate” value [1, 5]?
The value was 6.5 mg/L/h.

What about the “Reaction Rate” value ([1]; cell concentration 4.0 g/l) of the same compound?
Its value is 6.5 mg/l hr.

With ClC(Cl)=C(Cl)Cl [Tetrachloroethylene, tetrachloroethylene] as the compound, how does the “Reaction Rate” value [1, 5] read?
Its value is 0 mg/L/h.

And the “degradability” value ([1]; result in words)?
The value was “cannot be degraded”.

C=C(Cl)Cl [1,1-Dichloroethylene, 1,1-dichloroethylene] was tested. Which “Reaction Rate” value ([1]; Cell Concentration 8.0 g/l, initial substrate concentration not exceeding 20 mg/l) did it give?
Its value is 14.8 mg/L/h.

And the “reaction rate, corresponding value (for the cell concentration of the other substrates)” value ([1]; converted from the 8.0 g/l measurement)?
Its value is 7.4 mg/l hr.

And the “degradability” value ([1]; result in words)?
The value was “can be degraded”.
